Measured values as given in patent publication US10620215B2, “Real-time imaging sensor for measuring cellular thiol level” (CELL2IN, INC., priority 2014, dated 2020).

Tests used:
[1] = Chemical equilibrium constant (Kd) of the tracer with β-mercaptoethanol, from fluorescence emission after equilibration; type: binding
Method: (§1) A buffer (10 mM phosphate, 150 mM NaCl, pH 7.4, H2O:DMSO=98:2) containing a mixture of a thiol compound (0-200 mM) and a FreSH-tracer (10 μM) was prepared, and the time-dependent UV-Vis absorption spectrum and fluorescence emission spectrum of the buffer were measured with S-3100 spectrophotometer and Hitachi F-7000 spectrophotometer. For preparation of buffers for use in in vitro experiments at pHs of pH 4, 5, 9 and 10, acetate and CHES (2-(cyclohexylamino)ethanesulfonate) were used instead of phosphate.
(§2) After a chemical equilibrium between the thiol compound (0-200 mM) and the FreSH-tracer was formed by an in vitro reaction, the emission spectrum of fluorescence emitted upon excitation with light at a wavelength of 430 nm was measured. The relationship between the fluorescence intensity at the maximum emission wavelength (580 nm) and the concentration of the thiol compound was analyzed by non-linear regression to determine the chemical equilibrium constant (Kd) between the thiol compound and the FreSH-tracer.

[2] = Chemical equilibrium constant (Kd) and fluorescence ratio response of the tracer with glutathione (GSH) in vitro; type: binding; details: equilibration with GSH
Method: as §1, §2

[3] = system: RAW264.7; test: Level of thiols in RAW264.7 macrophages after NADPH oxidase activation, by FreSH-tracer F510/F580 ratio; type: cell-based; details: PMA treatment for 10-20 minutes; returned to basal level after 40-50 minutes
Method: (§3) HeLa and RAW264.7 cells were cultured in DMEM (containing 10% heat-inactivated FBS (Hyclone), 100 U/ml of penicillin, 100 μg/ml of streptomycin sulfate and 2 mM glutamine and free of phenol red). HeLa (1.8×10^5 cells/dish) and RAW264.7 (2×10^5 cells/dish) were seeded in 35 mm cover glass bottom dishes (SPL Life Sciences), and then cultured under the conditions of 37° C. and 5% CO2 for the indicated time. Before observation using a fluorescence microscope, the HeLa cells were incubated with 2 mL of a medium containing 5 μM of the FreSH-tracer HeLa for 2 hours, and the RAW264.7 cells were incubated for 4 hours. Real-time images of the cells were acquired using a Nikon A1 laser scanning confocal microscope. The imaging test was 2 performed while the cells were incubated under the conditions of 37° C. and 5% CO2 in a chamber mounted in a Nikon ECLIPSE Ti inverted microscope equipped with CFI Plan apochromat 60× and 1.40 numerical aperture (NA) objective lenses. The FreSH-tracer was excited with laser beams at 403 nm and 488 nm, and the fluorescence of the tracer was detected through filters with 500-550 nm and 570-620 nm band intervals. Using NIS-Elements AR software, the experimental data were analyzed and the ratio of fluorescence was imaged.
ROS that are generated by phagocytic NADPH oxidase (Phox) activity are essential defense substances that kill invasive microorganisms. […]

[4] = system: HeLa cells; test: Level of thiols / reduced GSH in living HeLa cells, by FreSH-tracer fluorescence intensity ratio; type: cell-based; details: treatment with GSH-related enzyme inhibitor
Method: as §3, with “imaged. […]” for “imaged.”

Compound	Kd [1]	further results
N#CC(=Cc1cc2cc3c4c(c2oc1=O)CCCN4CCC3)C(=O)N1CCC(C(=O)NCC[P+](c2ccccc2)(c2ccccc2)c2ccccc2)CC1 [formula 5]	2.2 ± 0.1 mM	
CCOC(=O)CNC(=O)C(C#N)=Cc1cc2cc3c4c(c2oc1=O)CCCN4CCC3 [formula 3]	14 ± 1 mM	
CC(=O)OCOC(=O)C1CCN(C(=O)C(C#N)=Cc2cc3cc4c5c(c3oc2=O)CCCN5CCC4)CC1 [formula 4]		Kd [2]: 2.8 ± 0.4 mM
CN(C)C(=O)C(C#N)=Cc1cc2cc3c4c(c2oc1=O)CCCN4CCC3 [formula 2]	12 ± 1 mM	
CCCCCCCCCCCCCC(=O)O[C@@H]1[C@@H](C)[C@@]2(O)[C@@H](C=C(CO)C[C@]3(O)C(=O)C(C)=C[C@@H]23)[C@@H]2C(C)(C)[C@]12OC(C)=O [PMA, phorbol 12-myristate 13-acetate]		level of thiols in the cells [3]: reduced
CCN(CC)c1ccc2cc(C=C(C#N)C(=O)N(C)C)c(=O)oc2c1 [formula 8]	2.2 ± 0.1 mM	
CCCCS(=N)(=O)CCC(N)C(=O)O (centres unmarked) [BSO, buthionine sulphoximine]		fluorescence intensity ratio of the sensor (level of reduced GSH) in HeLa cells [4]: reduced
CC(=O)OCOC(=O)CC[C@H](NC(=O)C1CCN(C(=O)C(C#N)=Cc2cc3cc4c5c(c3oc2=O)CCCN5CCC4)CC1)C(=O)OCOC(C)=O [formula 7]		Kd [2]: 3.7 ± 0.2 mM
